From patent US10407381B2 (THE BOARD OF TRUSTEES OF THE UNIVERSITY OF ILLINOIS, priority 2015, dated 2019) come the findings set out here.

Where two headings read alike, the source gives them in different places.

In one assay the target is 5-HT2B (Homo sapiens, UniProt P41595). Put plainly: Calcium flux (FLIPR) assay, human 5-HT2B stably expressed in HEK-293 (Flp-In-293) cells. The note with it: human 5-HT2B in HEK-293 cells; for EC50: EC50, nM 5-HT2B, NA = no activity at 10 μM; for Emax, % 5-HT 5-HT2B: normalized to 5-HT.
The next assay concerns the target T1, human 5-HT2C-INI (Homo sapiens, UniProt P28335).
T1 sequence (P28335 33-458): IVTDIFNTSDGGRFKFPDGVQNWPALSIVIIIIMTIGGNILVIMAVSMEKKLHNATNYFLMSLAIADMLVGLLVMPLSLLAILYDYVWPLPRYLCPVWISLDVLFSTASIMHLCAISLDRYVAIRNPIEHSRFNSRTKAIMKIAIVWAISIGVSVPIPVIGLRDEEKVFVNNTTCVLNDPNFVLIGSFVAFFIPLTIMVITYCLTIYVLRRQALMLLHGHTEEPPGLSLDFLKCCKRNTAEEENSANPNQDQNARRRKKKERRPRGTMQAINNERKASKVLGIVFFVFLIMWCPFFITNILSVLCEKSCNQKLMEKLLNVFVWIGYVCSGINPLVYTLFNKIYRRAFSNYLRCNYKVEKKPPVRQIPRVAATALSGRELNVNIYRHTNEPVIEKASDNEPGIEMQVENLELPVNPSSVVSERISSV
The assay can be described thus: Calcium flux (FLIPR) assay, human 5-HT2C-INI stably expressed in HEK-293 (Flp-In-293) cells. The note with it: human 5-HT2C-INI in HEK-293 cells, FLIPR; for EC50: NA = no activity at 10 μM; for Emax, % 5-HT 5-HT2C: normalized to 5-HT.

5-HT2B, sequence (P41595 whole entry): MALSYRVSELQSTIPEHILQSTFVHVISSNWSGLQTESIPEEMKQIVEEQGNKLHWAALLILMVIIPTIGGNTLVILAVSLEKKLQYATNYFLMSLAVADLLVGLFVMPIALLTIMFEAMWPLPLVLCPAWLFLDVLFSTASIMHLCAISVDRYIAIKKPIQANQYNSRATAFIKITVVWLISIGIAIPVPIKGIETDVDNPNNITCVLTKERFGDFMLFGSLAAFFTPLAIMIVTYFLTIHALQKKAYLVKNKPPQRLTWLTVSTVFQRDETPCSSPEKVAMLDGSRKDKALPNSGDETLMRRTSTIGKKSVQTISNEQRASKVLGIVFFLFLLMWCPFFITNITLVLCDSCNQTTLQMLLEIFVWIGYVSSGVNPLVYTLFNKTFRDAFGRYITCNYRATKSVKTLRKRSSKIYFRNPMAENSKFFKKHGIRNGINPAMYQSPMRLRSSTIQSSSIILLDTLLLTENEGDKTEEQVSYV

With `NCC1CC1c1cc(Cl)c(F)cc1OCCF` (single isomer, unassigned; (+)) [(+)-Example 4, (+)-(2-(5-Chloro-4-fluoro-2-(2-fluoroethoxy)phenyl)cyclopropyl)methanamine], at 5-HT2B, the EC50 came out at 506 nM and the “Emax, % 5-HT 5-HT2B” value was “(39%) % 5-HT”. The EC50 on human 5-HT2C-INI (EC50, nM 5-HT2C) came to 24 nM. Also, at human 5-HT2C-INI, the “Emax, % 5-HT 5-HT2C” value is “(87%) % 5-HT”.

Take `C=CCOc1cc(F)c(Cl)cc1C1CC1CN` (single isomer, unassigned; (+)) [(+)-Example 5, (+)-(2-(2-(Allyloxy)-5-chloro-4-fluorophenyl)cyclopropyl)methanamine]: the EC50 at 5-HT2B turned out to be 1000 nM; at human 5-HT2C-INI (EC50, nM 5-HT2C), 42 nM. For the same compound, at 5-HT2B, the “Emax, % 5-HT 5-HT2B” value was “(44%) % 5-HT”. Besides, the “Emax, % 5-HT 5-HT2C” value at human 5-HT2C-INI was “(87%) % 5-HT”.

As for `CCCOc1ccc(Cl)cc1C1CC1CN` (single isomer, unassigned; (+)) [(+)-Example 12, (+)-(2-(5-Chloro-2-propoxyphenyl)cyclopropyl)methanamine], the EC50 on 5-HT2B turned out to be 3440 nM; on human 5-HT2C-INI (EC50, nM 5-HT2C), 103 nM. Further, the “Emax, % 5-HT 5-HT2B” value at 5-HT2B is “(25%) % 5-HT”. Besides, at human 5-HT2C-INI, the “Emax, % 5-HT 5-HT2C” value is reported as “(72%) % 5-HT”.

Take `COCCOc1ccc(Cl)cc1C1CC1CN` (single isomer, unassigned; (+)) [(+)-Example 17, (+)-(2-(5-Chloro-2-(2-methoxyethoxy)phenyl)cyclopropyl)methanamine]: at human 5-HT2C-INI (EC50, nM 5-HT2C), the EC50 stood at 183 nM. Moreover, the “Emax, % 5-HT 5-HT2C” value on human 5-HT2C-INI was “(8%) % 5-HT”.

Turning to `CSCCOc1ccc(Cl)cc1C1CC1CN` (single isomer, unassigned; (+)) [(+)-Example 18, (+)-(2-(5-Chloro-2-(2-(methylthio)ethoxy)phenyl)cyclopropyl)methanamine], the EC50 on human 5-HT2C-INI (EC50, nM 5-HT2C) stood at 244 nM. On human 5-HT2C-INI, the “Emax, % 5-HT 5-HT2C” value is on record as “(24%) % 5-HT”.

For `NCC1CC1c1cc(Cl)ccc1OCCCF` (single isomer, unassigned; (+)) [(+)-Example 20, (+)-(2-(5-Chloro-2-(3-fluoropropoxy)phenyl)cyclopropyl)methanamine], the EC50 on 5-HT2B turned out to be 4910 nM; on human 5-HT2C-INI (EC50, nM 5-HT2C) it was 206 nM. Besides, the “Emax, % 5-HT 5-HT2B” value on 5-HT2B is recorded as “(22%) % 5-HT”. Also, the “Emax, % 5-HT 5-HT2C” value on human 5-HT2C-INI is listed as “(60%) % 5-HT”.

Take `C=CCOc1ccc(Cl)cc1C1CC1CN` (single isomer, unassigned; (+)) [(+)-Example 23, (+)-(2-(2-(Allyloxy)-5-chlorophenyl)cyclopropyl)methanamine]: at 5-HT2B, the EC50 stood at 2210 nM and the “Emax, % 5-HT 5-HT2B” value is “(32%) % 5-HT”. At human 5-HT2C-INI (EC50, nM 5-HT2C), the EC50 was determined as 60 nM. For the same compound, the “Emax, % 5-HT 5-HT2C” value on human 5-HT2C-INI is reported as “(80%) % 5-HT”.

As for `NCC1CC1c1c(OCCF)ccc(Cl)c1F` (single isomer, unassigned; (+)) [(+)-Example 31, (+)-(2-(3-Chloro-2-fluoro-6-(2-fluoroethoxy)phenyl)cyclopropyl)methanamine], on 5-HT2B, the “Emax, % 5-HT 5-HT2B” value is reported as “(15%) % 5-HT”. In addition, the EC50 on human 5-HT2C-INI (EC50, nM 5-HT2C) is 71 nM. For the same compound, the “Emax, % 5-HT 5-HT2C” value on human 5-HT2C-INI is “(86%) % 5-HT”.

On to `C=CCOc1cc(Cl)c(Cl)cc1C1CC1CN` (single isomer, unassigned; (+)) [(+)-Example 35, (+)-(2-(2-(Allyloxy)-4,5-dichlorophenyl)cyclopropyl)methanamine], for which, at human 5-HT2C-INI (EC50, nM 5-HT2C), the concentration for a half-maximal effect (EC50) was determined as 61 nM. Also, the “Emax, % 5-HT 5-HT2C” value at human 5-HT2C-INI was “(88%) % 5-HT”.

As to `C=CCOc1ccc(Cl)c(Cl)c1C1CC1CN` (single isomer, unassigned; (+)) [(+)-Example 39], the “Emax, % 5-HT 5-HT2C” value on human 5-HT2C-INI is reported as “(70%) % 5-HT”. The EC50 at human 5-HT2C-INI (read-out: EC50, nM 5-HT2C) was 165 nM.

Consider `NCC1CC1c1cc(F)c(F)cc1OCCF` (single isomer, unassigned; (+)) [(+)-Example 42, (+)-(2-(4,5-Difluoro-2-(2-fluoroethoxy)phenyl)cyclopropyl)methanamine], for which the EC50 on human 5-HT2C-INI (EC50, nM 5-HT2C) was determined as 7.3 nM. On human 5-HT2C-INI, the “Emax, % 5-HT 5-HT2C” value is reported as “(95%) % 5-HT”.

In the case of `NCC1CC1c1c(OCCF)ccc(F)c1F` (single isomer, unassigned; (+)) [(+)-Example 47, (+)-(2-(2,3-Difluoro-6-(2-fluoroethoxy)phenyl)cyclopropyl)methanamine], the EC50 on human 5-HT2C-INI (EC50, nM 5-HT2C) came to 25 nM. In addition, at human 5-HT2C-INI, the “Emax, % 5-HT 5-HT2C” value was “(95%) % 5-HT”.

As for `C=CCOc1ccc(F)c(F)c1C1CC1CN` (single isomer, unassigned; (+)) [(+)-Example 49, (+)-(2-(6-(Allyloxy)-2,3-difluorophenyl)cyclopropyl)methanamine], at 5-HT2B, the EC50 stood at 3340 nM and the “Emax, % 5-HT 5-HT2B” value is “(35%) % 5-HT”. The EC50 on human 5-HT2C-INI (EC50, nM 5-HT2C) is 36 nM. At human 5-HT2C-INI, the “Emax, % 5-HT 5-HT2C” value was “(100%) % 5-HT”.

On to `NCC1CC1c1c(OCCF)ccc(F)c1Cl` (single isomer, unassigned; (+)) [(+)-Example 52, (+)-(2-(2-Chloro-3-fluoro-6-(2-fluoroethoxy)phenyl)cyclopropyl)methanamine], for which the EC50 on human 5-HT2C-INI (EC50, nM 5-HT2C) worked out at 49 nM. The “Emax, % 5-HT 5-HT2C” value at human 5-HT2C-INI is listed as “(86%) % 5-HT”.

As for `C=CCOc1ccc(F)c(Cl)c1C1CC1CN` (single isomer, unassigned; (+)) [(+)-Example 53, (+)-(2-(6-(Allyloxy)-2-chloro-3-fluorophenyl)cyclopropyl)methanamine], the EC50 on human 5-HT2C-INI (EC50, nM 5-HT2C) was found to be 96 nM. Moreover, the “Emax, % 5-HT 5-HT2C” value on human 5-HT2C-INI is recorded as “(92% 5-HT”.

Turning to `NCC1CC1c1cc(Cl)c(F)cc1OCCF` (single isomer, unassigned; (-)) [(−)-Example 4, (−)-(2-(5-Chloro-4-fluoro-2-(2-fluoroethoxy)phenyl)cyclopropyl)methanamine], on 5-HT2B, the EC50 was determined as 2520 nM and the “Emax, % 5-HT 5-HT2B” value is given as “(26%) % 5-HT”. Further, on human 5-HT2C-INI (EC50, nM 5-HT2C), the EC50 came to 776 nM. Besides, the “Emax, % 5-HT 5-HT2C” value on human 5-HT2C-INI is on record as “(70%) % 5-HT”.

`C=CCOc1cc(F)c(Cl)cc1C1CC1CN` (single isomer, unassigned; (-)) [(−)-Example 5, (−)-(2-(2-(Allyloxy)-5-chloro-4-fluorophenyl)cyclopropyl)methanamine]: at 5-HT2B, the half-maximal effective concentration (EC50) came to 1960 nM and the “Emax, % 5-HT 5-HT2B” value is “(22%) % 5-HT”. Further, the EC50 at human 5-HT2C-INI (EC50, nM 5-HT2C) was found to be 308 nM. For the same compound, on human 5-HT2C-INI, the “Emax, % 5-HT 5-HT2C” value is on record as “(77%) % 5-HT”.

Consider `C#CCOc1cc(F)c(Cl)cc1C1CC1CN` (single isomer, unassigned; (-)) [(−)-Example 6, (−)-(2-(5-Chloro-4-fluoro-2-(prop-2-yn-1-yloxy)phenyl)cyclopropyl)methanamine], for which the EC50 was determined as 4210 nM on 5-HT2B and 117 nM at human 5-HT2C-INI (EC50, nM 5-HT2C). In addition, at 5-HT2B, the “Emax, % 5-HT 5-HT2B” value was “(33%) % 5-HT”. Further, the “Emax, % 5-HT 5-HT2C” value at human 5-HT2C-INI is “(92%) % 5-HT”.

With `CCCOc1ccc(F)cc1C1CC1CN` (single isomer, unassigned; (-)) [(−)-Example 7, (−)-(2-(5-Fluoro-2-propoxyphenyl)cyclopropyl)methanamine], the EC50 on 5-HT2B was found to be 735 nM; on human 5-HT2C-INI (EC50, nM 5-HT2C) it was 296 nM. Moreover, the “Emax, % 5-HT 5-HT2B” value on 5-HT2B is on record as “(11%) % 5-HT”. The “Emax, % 5-HT 5-HT2C” value on human 5-HT2C-INI was “(80%) % 5-HT”.

In the case of `C=C(F)COc1ccc(F)cc1C1CC1CN` (single isomer, unassigned; (-)) [(−)-Example 9, (−)-(2-(5-Fluoro-2-((2-fluoroallyl)oxy)phenyl)cyclopropyl)methanamine], the EC50 at human 5-HT2C-INI (EC50, nM 5-HT2C) worked out at 985 nM. Besides, on human 5-HT2C-INI, the “Emax, % 5-HT 5-HT2C” value was “(62%) % 5-HT”.

In the case of `CCOc1ccc(Cl)cc1C1CC1CN` (single isomer, unassigned; (-)) [(−)-Example 11, (−)-(2-(5-Chloro-2-ethoxyphenyl)cyclopropyl)methanamine], on 5-HT2B, the EC50 amounted to 2310 nM and the “Emax, % 5-HT 5-HT2B” value is “(26%) % 5-HT”. Also, the EC50 on human 5-HT2C-INI (EC50, nM 5-HT2C) was 646 nM. Besides, the “Emax, % 5-HT 5-HT2C” value at human 5-HT2C-INI is listed as “(72%) % 5-HT”.

In the case of `CSCCOc1ccc(Cl)cc1C1CC1CN` (single isomer, unassigned; (-)) [(−)-Example 18, (−)-(2-(5-Chloro-2-(2-(methylthio)ethoxy)phenyl)cyclopropyl)methanamine], the EC50 at human 5-HT2C-INI (EC50, nM 5-HT2C) amounted to 1760 nM. Moreover, the “Emax, % 5-HT 5-HT2C” value at human 5-HT2C-INI is reported as “(11%) % 5-HT”.

As for `C=C(C)COc1ccc(Cl)cc1C1CC1CN` (single isomer, unassigned; (-)) [(−)-Example 24, (−)-(2-(5-Chloro-2-((2-methylallyl)oxy)phenyl)cyclopropyl)methanamine], at 5-HT2B, the concentration giving a half-maximal response (EC50) came out at 6090 nM and the “Emax, % 5-HT 5-HT2B” value was “(39%) % 5-HT”.

Consider `C=C(F)COc1ccc(Cl)cc1C1CC1CN` (single isomer, unassigned; (-)) [(−)-Example 25, (−)-(2-(5-Chloro-2-((2-fluoroallyl)oxy)phenyl)cyclopropyl)methanamine], for which, on 5-HT2B, the EC50 worked out at 6880 nM and the “Emax, % 5-HT 5-HT2B” value is “(33%) % 5-HT”.

On to `NCC1CC1c1cc(F)c(F)cc1OCCF` (single isomer, unassigned; (-)) [(−)-Example 42, (−)-(2-(4,5-Difluoro-2-(2-fluoroethoxy)phenyl)cyclopropyl)methanamine], for which, on human 5-HT2C-INI (EC50, nM 5-HT2C), the EC50 worked out at 772 nM. For the same compound, the “Emax, % 5-HT 5-HT2C” value on human 5-HT2C-INI is “(73%) % 5-HT”.

Take `CCCOc1ccc(F)c(F)c1C1CC1CN` (single isomer, unassigned; (-)) [(−)-Example 48, (−)-(2-(2,3-Difluoro-6-propoxyphenyl)cyclopropyl)methanamine]: at human 5-HT2C-INI (EC50, nM 5-HT2C), the EC50 was 357 nM. The “Emax, % 5-HT 5-HT2C” value at human 5-HT2C-INI is recorded as “(68%) % 5-HT”.
